Data on two compounds can be found in paper PMC3071891 (Journal of inorganic biochemistry, 2010).

Molecules are shown by their SMILES. Where two headings read alike, the source gives them in different places.

Experiment [1] concerns the target T1, Giardia lamblia fructose 1,6-bisphosphate aldolase (GlFBPA) (Giardia intestinalis, UniProt A8B2U2). Conditions: read-out: GlFBPA inhibition constant (Ki); inert substrate analog; ref [25]; cited from earlier work.
Experiment [2] concerns the target T1, Giardia lamblia fructose 1,6-bisphosphate aldolase (GlFBPA). The experiment is described as follows: GlFBPA inhibition constants, steady-state kinetics.

T1 sequence (A8B2U2 whole entry): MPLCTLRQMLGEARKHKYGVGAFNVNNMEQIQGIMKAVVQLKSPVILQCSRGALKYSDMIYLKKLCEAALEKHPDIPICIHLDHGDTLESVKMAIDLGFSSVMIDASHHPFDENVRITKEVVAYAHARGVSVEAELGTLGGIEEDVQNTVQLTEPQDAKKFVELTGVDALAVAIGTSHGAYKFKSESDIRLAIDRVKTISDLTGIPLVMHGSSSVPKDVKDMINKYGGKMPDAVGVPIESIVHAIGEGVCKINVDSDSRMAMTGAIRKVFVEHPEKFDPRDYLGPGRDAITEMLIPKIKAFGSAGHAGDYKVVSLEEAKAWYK

Broadly, the Ki is the equilibrium dissociation constant of an inhibitor or competing ligand from its target. Consider `O=C(COP(=O)(O)O)[C@@H](O)[C@@H](O)[C@H](O)COP(=O)(O)O` [TBP, tagatose 1,6-bisphosphate], for which, in experiment [1], the Ki is 1 µM.

In experiment [2], `O=c1c(O)cccn1CP(=O)(O)O` [Compound 1, N-phosphonomethyl-3-hydroxy-2-pyridone] showed a Ki of 1200 ± 200 µM.
